Data from the supplement of paper PMC10307832.

Tests used:
Test in all cases: relative viability (nuclei count vs DMSO), 5 days (fraction); higher = more cells survive
[1] = compound: C#Cc1cccc(Nc2ncnc3cc(OCCOC)c(OCCOC)cc23)c1 [Erlotinib]
How it was run: (§1)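 Cells of lung cancer lines were placed in 1536-well plates and kept overnight at 37 °C. Pinning then delivered five library-drug doses (not always all listed), spaced by √10, onto plates anchored with vehicle, and the cells were left 5 days without changing medium. One step fixed, permeabilised and stained them with Hoechst, and MetaXpress counted nuclei in 4× images. Viability, as a median over plates, is treated-well nuclei divided by vehicle-well nuclei, with acceptance only at control CV below 25% and at least one doubling.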

[2] = compound: N=C(N)NC(=N)NCCc1ccccc1 [Phenformin] (anchor plate); conditions: 250 µM
How it was run: as §1

[3] = compound: O=C(Nc1c[nH]nc1-c1nc2ccc(CN3CCOCC3)cc2[nH]1)NC1CC1 [AT9283]
How it was run: as §1

[4] = compound: C#Cc1cccc(Nc2ncnc3cc(OCCOC)c(OCCOC)cc23)c1 [Erlotinib] + C[C@]1(O)C[C@@H](c2nc(-c3ccc4ccc(-c5ccccc5)nc4c3)c3c(N)nccn32)C1 [Linsitinib] (partner 1 µM)
How it was run: (§2)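 Lung cancer cell lines were seeded in 1536-well plates and dosed by pin tool the next day, with either a single drug or a fixed anchor-drug dose combined with five library-drug doses (not always all listed) spaced in √10 steps. Five days later, one step fixed the cells and stained their nuclei (final 0.05% Triton X-100, 1% formaldehyde, 1 ug/ml Hoechst), and nuclei were counted on 4× images. Relative viability is the nuclei count in treated wells divided by the count in vehicle wells, and each value is the median of duplicate plates.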

[5] = compound: O=C(Nc1c[nH]nc1-c1nc2ccc(CN3CCOCC3)cc2[nH]1)NC1CC1 [AT9283] + N=C(N)NC(=N)NCCc1ccccc1 [Phenformin] (partner 250 µM)
How it was run: as §2

Cell Line | relative viability ([1]; 0.02 µM) | relative viability ([1]; 0.2 µM) | relative viability ([1]; 0.6325 µM) | relative viability ([1]; 2 µM) | relative viability [2] | relative viability ([3]; 0.003 µM) | relative viability ([3]; 0.03 µM) | relative viability ([3]; 0.09487 µM) | relative viability ([3]; 0.3 µM) | relative viability ([4]; first compound 0.02 µM) | relative viability ([4]; first compound 0.2 µM) | relative viability ([4]; first compound 0.6325 µM) | relative viability ([4]; first compound 2 µM) | relative viability ([5]; first compound 0.003 µM) | relative viability ([5]; first compound 0.03 µM) | relative viability ([5]; first compound 0.09487 µM) | relative viability ([5]; first compound 0.3 µM)
HCC-366 | 1.03 | 1.07 | 0.984 | 1.01 | 0.608 | 0.956 | 0.938 | 0.54 | 0.204 | 0.752 | 0.52 | 0.574 | 0.564 | 0.609 | 0.657 | 0.0853 | 0.0845
HCC-827 | 0.549 | 0.185 | 0.177 | 0.208 | 0.4 | 0.985 | 0.855 | 0.618 | 0.358 | 0.281 | 0.188 | 0.173 | 0.166 | 0.399 | 0.352 | 0.356 | 0.196
HOP-62 | 1.01 | 0.972 | 1.08 | 1.04 | 0.673 | 1 | 0.771 | 0.393 | 0.273 | 1.14 | 0.959 | 1.01 | 0.912 | 0.694 | 0.572 | 0.418 | 0.25
IA-LM | 0.947 | 0.777 | 1.08 | 0.885 | – | 0.853 | 0.735 | 0.267 | 0.111 | 0.62 | 0.578 | 0.55 | 0.595 | – | – | – | –
LC-2-ad | 0.998 | 1.08 | 1.01 | 0.826 | 0.605 | 0.93 | 0.695 | 0.233 | 0.177 | 0.889 | 0.823 | 0.76 | 0.611 | 0.449 | 0.363 | 0.224 | 0.193
LCLC-97TM1 | 1.07 | 1.14 | 1.23 | 0.972 | 0.391 | 0.841 | 0.469 | 0.159 | 0.112 | 0.212 | – | 0.196 | 0.196 | 0.445 | 0.282 | 0.152 | 0.137
LCLC-103H | 1.03 | 0.919 | 1 | 0.929 | 0.348 | 0.885 | 1.02 | 0.926 | 0.376 | 1.1 | 1.21 | 1.15 | 1.01 | 0.295 | 0.356 | 0.331 | 0.205
LK-2 | 0.993 | 0.864 | 1.36 | – | 0.485 | 0.937 | 0.57 | 0.168 | 0.195 | 0.557 | 0.43 | 0.869 | 0.377 | 0.516 | 0.156 | 0.136 | 0.175
LOU-NH91 | 0.831 | 0.696 | 0.756 | 0.68 | 0.705 | 0.936 | 0.812 | 0.614 | 0.48 | 0.592 | 0.544 | 0.487 | – | 0.658 | 0.673 | 0.454 | 0.371
LU99A | 0.932 | 0.952 | 0.913 | 0.916 | 0.886 | 0.88 | 0.477 | 0.253 | 0.186 | 0.616 | 0.497 | 0.457 | 0.446 | 0.804 | 0.441 | 0.17 | 0.199
LXF-289 | 0.98 | 1.03 | 0.971 | 0.963 | 0.518 | 0.995 | 0.993 | 0.465 | 0.22 | 0.966 | 0.921 | 0.934 | 0.874 | 0.528 | 0.447 | 0.0782 | 0.0825
NCI-H23 | 0.959 | 0.757 | 1.16 | 0.979 | 0.749 | 0.895 | 0.71 | 0.432 | 0.306 | 0.643 | 0.506 | 0.752 | 0.604 | 0.811 | 0.744 | 0.413 | 0.297
NCI-H322M | 0.825 | 0.703 | 0.574 | 0.513 | 0.791 | 0.817 | 0.67 | 0.469 | 0.474 | 0.8 | 0.727 | 0.512 | 0.337 | 0.65 | 0.486 | 0.414 | 0.387
NCI-H522 | 0.949 | 1.03 | 0.86 | 0.816 | 0.639 | 0.776 | 0.618 | 0.611 | 0.464 | – | – | – | – | 0.555 | 0.481 | 0.44 | 0.377
NCI-H1299 | 1.03 | 1.02 | 1.05 | 0.992 | – | 1.03 | 0.699 | 0.473 | 0.364 | 1.07 | 0.968 | 1.04 | 0.956 | – | – | – | –
NCI-H1623 | 0.945 | 0.723 | 0.592 | 0.333 | 0.577 | 0.94 | 0.928 | 0.545 | 0.501 | – | – | – | – | 0.597 | 0.578 | 0.55 | 0.336
NCI-H1648 | 0.83 | 0.704 | 0.608 | 0.439 | – | 0.765 | 0.886 | 0.493 | 0.312 | – | – | – | – | – | – | – | –
NCI-H1650 | 0.739 | 0.756 | 0.838 | 0.671 | 0.465 | 0.933 | 0.788 | 0.447 | 0.3 | – | – | – | – | 0.491 | 0.385 | 0.223 | 0.175
NCI-H1703 | 1.01 | 0.911 | 1.02 | 0.989 | – | 0.957 | 0.31 | 0.335 | 0.28 | 0.749 | 0.818 | 1.08 | 0.924 | – | – | – | –
NCI-H2170 | 1.02 | 0.996 | 0.872 | 0.656 | 0.439 | 0.991 | 0.864 | 0.471 | 0.197 | – | – | – | – | 0.433 | 0.375 | 0.177 | 0.14
NCI-H2342 | 0.903 | 0.891 | 0.84 | 0.725 | 0.607 | 1.04 | 0.877 | 0.78 | 0.424 | – | – | – | – | 0.592 | 0.423 | 0.534 | 0.341
SW 900 | 1 | 0.803 | 0.863 | 0.65 | 0.717 | 0.755 | 1.01 | 0.626 | 0.358 | – | – | – | – | 0.63 | 0.595 | 0.486 | 0.256
